US10954269B2, “Anti-inflammatory tripeptides” (Dr. August Wolff Gmbh & Co. KG Arzneimittel, priority 2013, dated 2021)

What was measured:
[1] = tested on: human keratinocyte cell line (HaCaT); experiment: Cytokine secretion on protein level in activated human keratinocyte cell line HaCaT (13-plex FACS / Luminex, supernatant); type: cell-based; settings: substance 10^−9M
Summary of the method: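 First, T-cells are isolated from healthy donors' blood. Next, they and HaCaT keratinocytes are activated for 48 h with PMA/Ionomycin or IFN-γ in the presence of tripeptides. Finally, secreted cytokines are quantified in supernatants by 13-plex FACS at 48 and 72 h.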

[2] = tested on: primary human T-cells; experiment: Cytokine secretion on protein level in activated primary human T-cells (13-plex FACS / Luminex, supernatant); type: cell-based; settings: for IL-1 cytokine concentration / IL-2 cytokine concentration / IL-4 cytokine concentration / IL-5 cytokine concentration / IL-6 cytokine concentration / IL-9 cytokine concentration / IL-10 cytokine concentration / IL-12p70 cytokine concentration / IL-13 cytokine concentration / IL-17 cytokine concentration / IL-22 cytokine concentration / TNF-α cytokine concentration / INF-α cytokine concentration: substance 10^−9M
Summary of the method: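 Cytokine protein in supernatant is read by multiplex FACS or Luminex. Tripeptide-treated HaCaT cells or blood-derived human T-cells are stimulated beforehand with PMA/Ionomycin or IFN-γ. The most relevant analytes are IL-1, IL-2, IL-6, IL-12p70, IL-17, IFN-γ and TNF-α, sampled 48 h and 72 h after stimulation.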

[3] = HaCaT stimulated with PMA/Ionomycin
[4] = primary human T-cells stimulated with IFN-γ
[5] = primary human T-cells stimulated with PBS
[6] = primary human T-cells stimulated with PMA/Ionomycin

Substance: N^α,N^α-dimethyl-(L)-Lys-(D)-Pro-N^α-methyl-(L)-Val-OH [Example 5]
- IL-10 cytokine concentration ([1]; HaCaT stimulated with PBS): 89.86 pg/mL
- IL-12p70 cytokine concentration ([1]; HaCaT stimulated with PBS): 0 pg/mL
- IL-13 cytokine concentration ([1]; HaCaT stimulated with PBS): 0 pg/mL
- IL-17 cytokine concentration ([1]; HaCaT stimulated with PBS): 18.83 pg/mL
- IL-22 cytokine concentration ([1]; HaCaT stimulated with PBS): 0 pg/mL
- TNF-α cytokine concentration ([1]; HaCaT stimulated with PBS): 0 pg/mL
- IFN-γ cytokine concentration [1, 3]: 199.65 pg/mL
- IL-1 cytokine concentration [1, 3]: 104.98 pg/mL
- IL-2 cytokine concentration [1, 3]: 145.65 pg/mL
- IL-4 cytokine concentration [1, 3]: 168.7 pg/mL
- IL-5 cytokine concentration [1, 3]: 1.93 pg/mL
- IL-6 cytokine concentration [1, 3]: 379.04 pg/mL
- IL-9 cytokine concentration [1, 3]: 0 pg/mL
- IL-10 cytokine concentration [1, 3]: 59.49 pg/mL
- IL-12p70 cytokine concentration [1, 3]: 0 pg/mL
- IL-13 cytokine concentration [1, 3]: 0 pg/mL
- IL-17 cytokine concentration [1, 3]: 95.44 pg/mL
- IL-22 cytokine concentration [1, 3]: 0 pg/mL
- TNF-α cytokine concentration [1, 3]: 27.45 pg/mL
- secretion / expression of pro-inflammatory cytokines (supernatant) ([2]; activated primary human T-cells): immunomodulatory effects were seen
- IL-1 cytokine concentration [2, 4]: 0 pg/mL
- IL-2 cytokine concentration [2, 4]: 0 pg/mL
- IL-4 cytokine concentration [2, 4]: 78.18 pg/mL
- IL-5 cytokine concentration [2, 4]: 0 pg/mL
- IL-6 cytokine concentration [2, 4]: 42.52 pg/mL
- IL-9 cytokine concentration [2, 4]: 5.56 pg/mL
- IL-10 cytokine concentration [2, 4]: 61 pg/mL
- IL-12p70 cytokine concentration [2, 4]: 0 pg/mL
- IL-13 cytokine concentration [2, 4]: 29.25 pg/mL
- IL-17 cytokine concentration [2, 4]: 26.44 pg/mL
- IL-22 cytokine concentration [2, 4]: 0 pg/mL
- TNF-α cytokine concentration [2, 4]: 12.52 pg/mL
- IL-1 cytokine concentration [2, 5]: 0 pg/mL
- IL-2 cytokine concentration [2, 5]: 0 pg/mL
- IL-4 cytokine concentration [2, 5]: 0 pg/mL
- IL-5 cytokine concentration [2, 5]: 0 pg/mL
- IL-6 cytokine concentration [2, 5]: 94.11 pg/mL
- IL-9 cytokine concentration [2, 5]: 6.74 pg/mL
- IL-10 cytokine concentration [2, 5]: 119.04 pg/mL
- IL-12p70 cytokine concentration [2, 5]: 0 pg/mL
- IL-13 cytokine concentration [2, 5]: 35.75 pg/mL
- IL-17 cytokine concentration [2, 5]: 0 pg/mL
- IL-22 cytokine concentration [2, 5]: 0 pg/mL
- INF-α cytokine concentration [2, 5]: 0 pg/mL
- TNF-α cytokine concentration [2, 5]: 0 pg/mL
- IL-1 cytokine concentration [2, 6]: 748 pg/mL
- IL-2 cytokine concentration [2, 6]: 4369.09 pg/mL
- IL-4 cytokine concentration [2, 6]: 92.43 pg/mL
- IL-5 cytokine concentration [2, 6]: 392.66 pg/mL
- IL-6 cytokine concentration [2, 6]: 1051.51 pg/mL
- IL-9 cytokine concentration [2, 6]: 193.58 pg/mL
- IL-10 cytokine concentration [2, 6]: 789.38 pg/mL
- IL-12p70 cytokine concentration [2, 6]: 0 pg/mL
- IL-13 cytokine concentration [2, 6]: 912.49 pg/mL
- IL-17 cytokine concentration [2, 6]: 1164.75 pg/mL
- IL-22 cytokine concentration [2, 6]: 0 pg/mL
- INF-α cytokine concentration [2, 6]: 8770.62 pg/mL
- TNF-α cytokine concentration [2, 6]: 2187.46 pg/mL
